Data on 1 substance can be found in article PMC5867518 (Cell metabolism, 2015).

Some targets named below: PI3Kδ (p110δ/p85α) (Homo sapiens, UniProt O00329); PI3Kγ (p110γ) (Homo sapiens, UniProt P48736); PI3Kα (p110α/p85α) (Homo sapiens, UniProt P42336).
What all share (test): PI3-kinase
What all share (format): biochemical

Chain of PI3Kδ (p110δ/p85α) (O00329 whole entry): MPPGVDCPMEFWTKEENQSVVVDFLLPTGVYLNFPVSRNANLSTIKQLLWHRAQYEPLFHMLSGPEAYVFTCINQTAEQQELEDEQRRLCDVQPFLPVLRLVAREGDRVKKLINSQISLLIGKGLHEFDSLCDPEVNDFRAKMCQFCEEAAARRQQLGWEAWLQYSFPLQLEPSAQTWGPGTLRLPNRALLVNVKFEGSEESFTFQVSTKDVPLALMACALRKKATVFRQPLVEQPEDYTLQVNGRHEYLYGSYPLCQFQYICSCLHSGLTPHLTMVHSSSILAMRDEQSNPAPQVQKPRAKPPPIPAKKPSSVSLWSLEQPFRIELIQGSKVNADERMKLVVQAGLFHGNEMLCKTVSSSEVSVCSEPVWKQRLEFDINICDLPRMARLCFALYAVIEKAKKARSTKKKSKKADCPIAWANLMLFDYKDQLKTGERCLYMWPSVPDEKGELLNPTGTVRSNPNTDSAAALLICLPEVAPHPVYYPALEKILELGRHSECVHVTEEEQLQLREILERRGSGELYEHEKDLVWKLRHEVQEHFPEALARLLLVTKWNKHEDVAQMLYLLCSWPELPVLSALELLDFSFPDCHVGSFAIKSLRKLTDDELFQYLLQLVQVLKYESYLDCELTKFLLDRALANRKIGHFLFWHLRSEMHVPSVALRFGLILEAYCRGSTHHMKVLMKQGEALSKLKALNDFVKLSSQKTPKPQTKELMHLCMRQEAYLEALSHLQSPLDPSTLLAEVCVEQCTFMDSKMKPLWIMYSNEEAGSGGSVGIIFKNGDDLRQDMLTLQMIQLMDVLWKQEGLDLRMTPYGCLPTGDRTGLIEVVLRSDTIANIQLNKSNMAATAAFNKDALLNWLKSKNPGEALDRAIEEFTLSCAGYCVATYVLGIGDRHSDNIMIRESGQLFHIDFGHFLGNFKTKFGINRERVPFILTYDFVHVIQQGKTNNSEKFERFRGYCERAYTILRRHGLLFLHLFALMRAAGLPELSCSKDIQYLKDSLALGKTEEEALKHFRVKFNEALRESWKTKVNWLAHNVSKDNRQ
Chain of PI3Kδ (p110δ/p85α) (P27986 2-724 partner): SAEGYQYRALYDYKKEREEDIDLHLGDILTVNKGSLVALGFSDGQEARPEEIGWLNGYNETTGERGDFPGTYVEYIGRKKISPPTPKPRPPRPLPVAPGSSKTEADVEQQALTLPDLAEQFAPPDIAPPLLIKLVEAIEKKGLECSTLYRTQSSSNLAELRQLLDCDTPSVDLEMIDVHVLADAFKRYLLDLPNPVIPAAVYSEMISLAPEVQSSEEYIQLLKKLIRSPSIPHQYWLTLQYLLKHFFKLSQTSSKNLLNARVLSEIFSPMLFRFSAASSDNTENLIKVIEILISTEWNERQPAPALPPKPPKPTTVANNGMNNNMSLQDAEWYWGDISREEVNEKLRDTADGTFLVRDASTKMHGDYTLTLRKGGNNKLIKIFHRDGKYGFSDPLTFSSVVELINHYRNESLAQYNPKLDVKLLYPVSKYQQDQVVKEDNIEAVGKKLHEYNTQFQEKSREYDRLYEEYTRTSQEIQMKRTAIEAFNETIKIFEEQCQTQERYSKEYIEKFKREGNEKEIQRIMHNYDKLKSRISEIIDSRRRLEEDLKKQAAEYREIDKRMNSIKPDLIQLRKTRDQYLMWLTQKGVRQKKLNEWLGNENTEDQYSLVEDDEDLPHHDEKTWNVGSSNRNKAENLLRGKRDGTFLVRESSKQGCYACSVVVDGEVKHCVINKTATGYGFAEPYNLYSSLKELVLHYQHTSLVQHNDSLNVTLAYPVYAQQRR
Chain of PI3Kα (p110α/p85α) (P42336 whole entry): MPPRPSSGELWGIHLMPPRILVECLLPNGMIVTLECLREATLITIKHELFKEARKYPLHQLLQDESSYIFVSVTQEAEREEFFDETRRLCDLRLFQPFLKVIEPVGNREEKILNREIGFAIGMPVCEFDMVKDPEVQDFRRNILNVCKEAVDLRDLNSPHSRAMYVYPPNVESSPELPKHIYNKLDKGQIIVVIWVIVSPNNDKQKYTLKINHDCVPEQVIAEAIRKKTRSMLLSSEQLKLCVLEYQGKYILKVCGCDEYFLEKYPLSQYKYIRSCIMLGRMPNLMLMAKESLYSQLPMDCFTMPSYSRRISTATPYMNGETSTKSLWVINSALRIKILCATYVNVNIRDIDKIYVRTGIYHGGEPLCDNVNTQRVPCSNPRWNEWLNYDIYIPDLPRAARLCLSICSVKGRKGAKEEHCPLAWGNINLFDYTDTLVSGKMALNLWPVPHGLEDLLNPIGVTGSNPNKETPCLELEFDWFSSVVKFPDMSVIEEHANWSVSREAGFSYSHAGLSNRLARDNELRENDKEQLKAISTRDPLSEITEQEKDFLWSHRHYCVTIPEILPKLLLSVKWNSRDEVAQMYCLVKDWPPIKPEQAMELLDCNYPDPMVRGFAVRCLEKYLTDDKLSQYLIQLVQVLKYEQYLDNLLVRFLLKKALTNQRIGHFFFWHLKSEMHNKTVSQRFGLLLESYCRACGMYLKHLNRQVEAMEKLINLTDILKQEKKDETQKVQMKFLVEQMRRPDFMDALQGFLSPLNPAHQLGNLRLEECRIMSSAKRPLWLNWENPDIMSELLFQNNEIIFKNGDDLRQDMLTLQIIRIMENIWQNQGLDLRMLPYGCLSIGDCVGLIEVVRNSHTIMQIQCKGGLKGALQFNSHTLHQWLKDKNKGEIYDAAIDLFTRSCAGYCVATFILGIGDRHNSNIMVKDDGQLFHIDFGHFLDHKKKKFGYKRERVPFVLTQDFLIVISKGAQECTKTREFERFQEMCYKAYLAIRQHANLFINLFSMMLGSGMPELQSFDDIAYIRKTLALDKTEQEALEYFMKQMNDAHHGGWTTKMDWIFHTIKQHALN
Chain of PI3Kα (p110α/p85α) (P27986 2-724 partner): as the sequence (P27986 2-724 partner) above
Chain of PI3Kγ (p110γ) (P48736 whole entry): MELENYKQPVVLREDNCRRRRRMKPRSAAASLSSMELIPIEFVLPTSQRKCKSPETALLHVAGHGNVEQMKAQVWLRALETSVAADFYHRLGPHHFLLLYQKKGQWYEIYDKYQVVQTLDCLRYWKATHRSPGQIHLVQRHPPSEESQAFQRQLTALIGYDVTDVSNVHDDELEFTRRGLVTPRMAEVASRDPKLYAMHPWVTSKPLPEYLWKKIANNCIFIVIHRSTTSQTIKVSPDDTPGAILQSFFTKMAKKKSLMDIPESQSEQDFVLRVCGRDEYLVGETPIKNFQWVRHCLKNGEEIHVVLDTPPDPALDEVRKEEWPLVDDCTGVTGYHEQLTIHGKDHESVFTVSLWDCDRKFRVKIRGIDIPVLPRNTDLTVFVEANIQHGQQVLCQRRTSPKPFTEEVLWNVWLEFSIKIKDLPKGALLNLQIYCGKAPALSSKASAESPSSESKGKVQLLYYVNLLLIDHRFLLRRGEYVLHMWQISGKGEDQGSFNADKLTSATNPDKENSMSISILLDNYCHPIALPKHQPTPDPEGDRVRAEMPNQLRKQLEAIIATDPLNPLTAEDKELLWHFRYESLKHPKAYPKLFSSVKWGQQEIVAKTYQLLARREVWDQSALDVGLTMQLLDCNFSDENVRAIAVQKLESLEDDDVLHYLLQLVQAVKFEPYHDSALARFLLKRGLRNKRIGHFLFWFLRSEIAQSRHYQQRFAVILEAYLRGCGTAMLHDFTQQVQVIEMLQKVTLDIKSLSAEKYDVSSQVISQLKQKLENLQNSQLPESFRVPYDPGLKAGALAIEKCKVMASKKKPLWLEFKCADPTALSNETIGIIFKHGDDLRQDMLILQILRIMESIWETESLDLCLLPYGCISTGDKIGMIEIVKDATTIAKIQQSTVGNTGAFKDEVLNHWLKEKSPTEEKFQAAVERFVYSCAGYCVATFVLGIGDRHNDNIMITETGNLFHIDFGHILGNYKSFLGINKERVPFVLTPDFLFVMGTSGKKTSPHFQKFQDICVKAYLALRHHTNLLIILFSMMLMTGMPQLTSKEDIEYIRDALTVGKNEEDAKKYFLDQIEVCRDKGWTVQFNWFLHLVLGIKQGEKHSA

Consider CNIO-PI3Ki, for which the results for the IC50 on PI3Kδ (p110δ/p85α), at PI3Kγ (p110γ) and against PI3Kα (p110α/p85α) were 2.5 nM, 44 nM and 2.4 nM, respectively.
